According to patent publication US20250101062A1, “ANTIMICROBIAL PEPTIDES” (Board of Regents of the University of Nebraska, priority 2023, published 2025):
Where no end group is shown, it is not given here.

Experiments:
trypsin = settings: peptide:protease 40:1, 37° C., 1 hour
Description: A solution of peptide/protease (40:1 molar ratio) was made in phosphate-buffered saline (PBS; pH 7.1, Gibco, NY) and incubated at 37° C. for 1 hour. As controls, peptides without proteases were also incubated in the same manner. Then, aliquots of 10 μL were transferred to a 96-well polystyrene microplate and mixed with the exponential-phase MRSA USA300 culture as performed in the antibacterial activity assays above.

[1] = test system: human keratinocyte HaCaT cells; test: Cell viability assay (MTS); assay type: cell-based
Description: Human keratinocyte HaCaT cells were grown in DMEM/high glucose (Hyclone, UT) containing 10% fetal bovine serum (Mediatech, Corning, Manassas, VA). […] The mixture was incubated at 37° C. in 5% CO2 for 24 hours.
HepG2 cells were cultured in ATCC-formulated Eagle's Minimum Essential Medium with 10% FBS. A549 cells were grown in ATCC-formulated F-12K Medium containing 10% FBS.

MRSA USA300 = test: Biofilm inhibition; assay type: cell-based, Staphylococcus aureus; settings: 0.5 to 2×MIC, 24 h
Description: Biofilm Inhibition. MRSA USA300 (10^5 CFU/mL) was prepared from the exponential phase. […] Media were then pipetted out, and the wells were washed with 1×PBS to remove planktonic cells. Live cells in biofilms were quantitated by XTT as described above.

E. coli E423-17 = test: Membrane permeabilization (propidium iodide); assay type: cell-based, Escherichia coli; settings: Example 1, 1×MIC

## RRWWRWWR-NH2 [W543]
trypsin
  activity after protease incubation: started to lose activity
[1]
  toxicity to human HaCaT skin cells: least toxic
MRSA USA300
  inhibition of biofilm formation: more effective than daptomycin
E. coli E423-17
  membrane permeabilization: 30 minute delay in membrane permeabilization
